Reference: US20240358702A1, “CYCLIC UREA KRAS INHIBITORS” (INCYTE CORPORATION, priority 2023, published 2024)

Experiments:
KRAS G12D = KRAS G12D (Homo sapiens, UniProt P01116, G12D); assay: GDP-GTP exchange assay (bodipy-GDP/GppNHp, SOS1), KRAS G12D; assay type: biochemical; conditions: KRAS_G12D exchange assay IC50, 4 h pre-incubation, value for the most potent isomer quoted
Description: (§1) The inhibitor potency of the exemplified compounds was determined in a fluorescence based guanine nucleotide exchange assay, which measures the exchange of bodipy-GDP (fluorescently labeled GDP) for GppNHp (Non-hydrolyzable GTP analog) to generate the active state of KRAS in the presence of SOS1 (guanine nucleotide exchange factor). Inhibitors were serially diluted in DMSO and a volume of 0.1 μL was transferred to the wells of a black low volume 384-well plate. 5 μL/well volume of bodipy-loaded KRAS G12D diluted to […] in assay buffer (25 mM Hepes pH 7.5, 50 mM NaCl, 10 mM mgCl2 and 0.01% Brij-35) was added to the plate and pre-incubated with inhibitor for 4 h at ambient temperature. Appropriate controls (enzyme with no inhibitor or with a G12D inhibitor) were included on the plate. The exchange was initiated by the addition of a 5 μL/well volume containing 1 mM GppNHp and 300 nM SOS1 in assay buffer. The 10 μL/well reaction concentration of the bodipy-loaded KRAS G12D, GppNHp, and SOS1 were 2.5 nM, 500 uM, and 150 nM, respectively. The reaction plates were incubated at ambient temperature for 2 h, a time estimated for complete GDP-GTP exchange in the absence of inhibitor. For the KRAS G12V mutant, similar guanine nucleotide exchange assays were used with 2.5 nM as final concentration for the bodipy loaded KRAS proteins and 3 h incubation after adding GppNHp-SOS1 mixture. A cyclic peptide described to selectively bind G12D mutant (Sakamoto et al., BBRC 484.3 (2017), 605-611) or internal compounds with confirmed binding were used as positive controls in the assay plates. Fluorescence intensities were measured on a PheraStar plate reader instrument (BMG Labtech) with excitation at 485 nm and emission at 520 nm.
(§2) Either GraphPad prism or Genedata Screener SmartFit was used to analyze the data. The IC50 values were derived by fitting the data to a four parameter logistic equation producing a sigmoidal dose-response curve with a variable Hill coefficient.
(§3) The symbol “t” indicates IC50≤100 nM, “††” indicates IC50>100 nM but ≤1 μM; and “†††” indicates IC50 is >1 μM but ≤5 μM, “††††” indicates IC50 is >5 μM but ≤10 μM. “NA” indicates IC50 not available.

KRAS G12V = KRAS G12V (Homo sapiens, UniProt P01116, G12V); assay: GDP-GTP exchange assay (bodipy-GDP/GppNHp, SOS1), KRAS G12V; assay type: biochemical; conditions: KRAS_G12V exchange assay IC50, value for the most potent isomer quoted; for IC50: read-out: G12V_exchange
KRAS G12V, sequence (P01116 1-188 isoform P01116-2 G12V): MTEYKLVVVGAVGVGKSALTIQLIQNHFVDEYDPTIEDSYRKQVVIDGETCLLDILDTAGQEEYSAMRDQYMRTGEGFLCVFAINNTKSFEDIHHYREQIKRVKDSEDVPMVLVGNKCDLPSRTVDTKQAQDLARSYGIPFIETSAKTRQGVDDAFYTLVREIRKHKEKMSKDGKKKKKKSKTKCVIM
Description: as §1, §2, §3

KRAS G12D, sequence (P01116 1-188 isoform P01116-2 G12D): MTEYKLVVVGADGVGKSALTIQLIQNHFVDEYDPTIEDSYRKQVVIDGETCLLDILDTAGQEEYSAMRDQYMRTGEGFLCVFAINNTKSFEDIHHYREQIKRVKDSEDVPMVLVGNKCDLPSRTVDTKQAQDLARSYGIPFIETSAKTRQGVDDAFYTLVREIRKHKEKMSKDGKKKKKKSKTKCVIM

Compound | G12D_exchange (KRAS G12D) | G12V_exchange (KRAS G12V) | IC50 (KRAS G12V) [µM] | IC50 (KRAS G12D; read-out: G12D_exchange) [µM]
Cc1nc2c(F)c(-c3cccc(Cl)c3Cl)c(CCC#N)cc2c2c1cc([C@@H](C)N1CCCN(c3ccnc(F)c3)C1=O)n2[C@H]1[C@H]2CN[C@@H]1C2 [Example 27, 3-(1-((1R,4R,5S)-2-azabicyclo[2.1.1]hexan-5-yl)-7-(2,3-dichlorophenyl)-6-fluoro-2-((R)-1-(3-(2-fluoropyridin-4-yl)-2-oxotetrahydropyrimidin-1(2H)-yl)ethyl)-4-methyl-1H-pyrrolo[3,2-c]quinolin-8-yl)propanenitrile] | † | † | – | –
CC(=O)NCc1cccc(N2CCCN([C@H](C)c3cc4c(C)nc5c(F)c(-c6cccc(Cl)c6Cl)c(CCC#N)cc5c4n3[C@H]3[C@H]4CN[C@@H]3C4)C2=O)c1 [Example 28, N-(3-(3-((1R)-1-(1-((1R,4R,5S)-2-azabicyclo[2.1.1]hexan-5-yl)-8-(2-cyanoethyl)-7-(2,3-dichlorophenyl)-6-fluoro-4-methyl-1H-pyrrolo[3,2-c]quinolin-2-yl)ethyl)-2-oxotetrahydropyrimidin-1(2H)-yl)benzyl)acetamide] | † | † | – | –
Cc1nc2c(F)c(-c3cccc(Cl)c3Cl)c(CCC#N)cc2c2c1cc([C@@H](C)N1CCCN(c3ccnc(C#N)c3)C1=O)n2[C@H]1[C@H]2CN[C@@H]1C2 [Example 29, 4-(3-((1R)-1-(1-((1R,4R,5S)-2-azabicyclo[2.1.1]hexan-5-yl)-8-(2-cyanoethyl)-7-(2,3-dichlorophenyl)-6-fluoro-4-methyl-1H-pyrrolo[3,2-c]quinolin-2-yl)ethyl)-2-oxotetrahydropyrimidin-1(2H)-yl)picolinonitrile] | † | – | 0.1 to 1 | –
Cc1nc2c(F)c(-c3cccc(Cl)c3Cl)c(CCC#N)cc2c2c1cc([C@@H](C)N1CCCN(c3ccnc(N(C)C)c3)C1=O)n2[C@H]1[C@H]2CN[C@@H]1C2 [Example 30, 3-(1-((1R,4R,5S)-2-azabicyclo[2.1.1]hexan-5-yl)-7-(2,3-dichlorophenyl)-2-((R)-1-(3-(2-(dimethylamino)pyridin-4-yl)-2-oxotetrahydropyrimidin-1(2H)-yl)ethyl)-6-fluoro-4-methyl-1H-pyrrolo[3,2-c]quinolin-8-yl)propanenitrile] | † | – | 0.1 to 1 | –
Cc1nc2c(F)c(-c3cccc(Cl)c3Cl)c(CCC#N)cc2c2c1cc([C@@H](C)N1CCCN(c3ccnc(C(F)F)c3)C1=O)n2[C@H]1[C@H]2CN[C@@H]1C2 [Example 31, 3-(1-((1R,4R,5S)-2-azabicyclo[2.1.1]hexan-5-yl)-7-(2,3-dichlorophenyl)-2-((R)-1-(3-(2-(difluoromethyl)pyridin-4-yl)-2-oxotetrahydropyrimidin-1(2H)-yl)ethyl)-6-fluoro-4-methyl-1H-pyrrolo[3,2-c]quinolin-8-yl)propanenitrile] | † | – | 0.1 to 1 | –
Cc1nc2c(F)c(-c3cccc(Cl)c3Cl)c(CCC#N)cc2c2c1cc([C@@H](C)N1CCCN(c3ccnc(N)c3)C1=O)n2[C@H]1[C@H]2CN[C@@H]1C2 [Example 32, 3-(2-((R)-1-(3-(2-aminopyridin-4-yl)-2-oxotetrahydropyrimidin-1(2H)-yl)ethyl)-1-((1R,4R,5S)-2-azabicyclo[2.1.1]hexan-5-yl)-7-(2,3-dichlorophenyl)-6-fluoro-4-methyl-1H-pyrrolo[3,2-c]quinolin-8-yl)propanenitrile] | † | † | – | –
Cc1nc2c(F)c(-c3cccc(Cl)c3Cl)c(CCC#N)cc2c2c1cc([C@@H](C)N1CCCN(c3ccncn3)C1=O)n2[C@H]1[C@H]2CN[C@@H]1C2 [Example 33, 3-(1-((1R,4R,5S)-2-azabicyclo[2.1.1]hexan-5-yl)-7-(2,3-dichlorophenyl)-6-fluoro-4-methyl-2-((R)-1-(2-oxo-3-(pyrimidin-4-yl)tetrahydropyrimidin-1(2H)-yl)ethyl)-1H-pyrrolo[3,2-c]quinolin-8-yl)propanenitrile] | † | – | 0.1 to 1 | –
Cc1nc2c(F)c(-c3cccc(Cl)c3Cl)c(CCC#N)cc2c2c1cc([C@@H](C)N1CCCN(c3cncnc3)C1=O)n2[C@H]1[C@H]2CN[C@@H]1C2 [Example 34, 3-(1-((1R,4R,5S)-2-azabicyclo[2.1.1]hexan-5-yl)-7-(2,3-dichlorophenyl)-6-fluoro-4-methyl-2-((R)-1-(2-oxo-3-(pyrimidin-5-yl)tetrahydropyrimidin-1(2H)-yl)ethyl)-1H-pyrrolo[3,2-c]quinolin-8-yl)propanenitrile] | † | † | – | –
Cc1nc2c(F)c(-c3cccc(Cl)c3Cl)c(CCC#N)cc2c2c1cc([C@@H](C)N1CCCN(c3ccn(C)c(=O)c3)C1=O)n2[C@H]1[C@H]2CN[C@@H]1C2 [Example 36, 3-(1-((1R,4R,5S)-2-azabicyclo[2.1.1]hexan-5-yl)-7-(2,3-dichlorophenyl)-6-fluoro-4-methyl-2-((R)-1-(3-(1-methyl-2-oxo-1,2-dihydropyridin-4-yl)-2-oxotetrahydropyrimidin-1(2H)-yl)ethyl)-1H-pyrrolo[3,2-c]quinolin-8-yl)propanenitrile] | – | – | 1 to 5 | 0.1 to 1

The next lines start with the values.

G12D_exchange (KRAS G12D) | G12V_exchange (KRAS G12V) | IC50 (KRAS G12V) [µM] | IC50 (KRAS G12D; read-out: G12D_exchange) [µM] | Compound
† | – | 0.1 to 1 | – | Cc1nc2c(F)c(-c3cccc(Cl)c3Cl)c(CCC#N)cc2c2c1cc([C@@H](C)N1CCCN(c3cc[nH]c(=O)c3)C1=O)n2[C@H]1[C@H]2CN[C@@H]1C2 [Example 37, 3-(1-((1R,4R,5S)-2-azabicyclo[2.1.1]hexan-5-yl)-7-(2,3-dichlorophenyl)-6-fluoro-4-methyl-2-((R)-1-(2-oxo-3-(2-oxo-1,2-dihydropyridin-4-yl)tetrahydropyrimidin-1(2H)-yl)ethyl)-1H-pyrrolo[3,2-c]quinolin-8-yl)propanenitrile]
† | † | – | – | Cc1nc2c(F)c(-c3cccc(Cl)c3Cl)c(CCC#N)cc2c2c1cc([C@@H](C)N1CCCN(c3ccnc4sccc34)C1=O)n2[C@H]1[C@H]2CN[C@@H]1C2 [Example 38, 3-(1-((1R,4R,5S)-2-azabicyclo[2.1.1]hexan-5-yl)-7-(2,3-dichlorophenyl)-6-fluoro-4-methyl-2-((R)-1-(2-oxo-3-(thieno[2,3-b]pyridin-4-yl)tetrahydropyrimidin-1(2H)-yl)ethyl)-1H-pyrrolo[3,2-c]quinolin-8-yl)propanenitrile]
† | † | – | – | CC(O)c1nc2c(F)c(-c3cccc(Cl)c3Cl)c(CCC#N)cc2c2c1cc([C@@H](C)N1CCCN(c3ccncc3)C1=O)n2[C@H]1[C@H]2CN[C@@H]1C2 (stereo partly drawn) [Example 39, 3-(1-((1R,4R,5S)-2-azabicyclo[2.1.1]hexan-5-yl)-7-(2,3-dichlorophenyl)-6-fluoro-4-(1-hydroxyethyl)-2-((R)-1-(2-oxo-3-(pyridin-4-yl)tetrahydropyrimidin-1(2H)-yl)ethyl)-1H-pyrrolo[3,2-c]quinolin-8-yl)propanenitrile]
† | † | – | – | Cc1nc2c(F)c(-c3cccc(Cl)c3Cl)c(CCC#N)cc2c2c1cc([C@@H](C)N1CCCN(c3ccc(F)cn3)C1=O)n2[C@H]1[C@H]2CN[C@@H]1C2 [Example 40, 3-(1-((1R,4R,5S)-2-azabicyclo[2.1.1]hexan-5-yl)-7-(2,3-dichlorophenyl)-6-fluoro-2-((R)-1-(3-(5-fluoropyridin-2-yl)-2-oxotetrahydropyrimidin-1(2H)-yl)ethyl)-4-methyl-1H-pyrrolo[3,2-c]quinolin-8-yl)propanenitrile]
† | – | 0.1 to 1 | – | Cc1nc2c(F)c(-c3cccc(Cl)c3Cl)c(CCC#N)cc2c2c1cc([C@@H](C)N1CCCN(c3cccc(F)n3)C1=O)n2[C@H]1[C@H]2CN[C@@H]1C2 [Example 41, 3-(1-((1R,4R,5S)-2-azabicyclo[2.1.1]hexan-5-yl)-7-(2,3-dichlorophenyl)-6-fluoro-2-((R)-1-(3-(6-fluoropyridin-2-yl)-2-oxotetrahydropyrimidin-1(2H)-yl)ethyl)-4-methyl-1H-pyrrolo[3,2-c]quinolin-8-yl)propanenitrile]
